Experiment [1] deals with HIV-1 strain IIIb. The experiment is described as follows: Viral intake and release: cell-free HIV-1 taken up by epithelial monolayer, supernatant titrated on MT4 cells. The experiment is classed as cell-based. How it is done: Epithelial cells were obtained from biopsies of the gingiva of a healthy donor. The biopsies were washed several times with phosphate-buffered saline and cultured after trypsinization in Dulbecco modified Eagle medium containing 10% fetal calf serum (FCS). Fibroblast growth was suppressed by the addition of recombinant epidermal growth factor (10 μg/liters Sigma, Deisenhofen, Germany) to the culture medium. The epithelial character of the primary cells and the formation of tight junctions were confirmed morphologically by electron microscopy.
(§1) HIV-1 strain IIIb (1,8×10^4 50% tissue culture infective doses [TCID50/ml]) harvested from HIV-1 infected H9 cells was cleared from all debris by centrifugation (10 min. 200×g) and filtered through a 0,2 μm pore size filter membrane. The cell-free virus was diluted 1:10 with Hanks buffer and was placeed in the apical compartment (for details see below). After a 45 min incubation, medium from the lower compartment was harvested. The amount of infectious HIV-1 in the basal chamber of the culture unit was determined by a standard tritation assay Tritation of HIV was performed in triplicate in 24-well tissue culture plates on MT 4 cells seeded at a concentration of 2×10^4/ml. Samples were diluted serially (1:10) in culture medium (RPMI 1640 supplemented with 10% FCS and 5% glutamine). The titration was evaluated between 10 and 14 days postinfection when a prominent cytopathic effect (CPE) was visible. Medium was replaced twice a week with cells being diluted as required. Values of TCID50 per milliliter were determined as described in Reed C. J. et al., 1938, Am. J. Hyg., 27, 494.497. All experiments were performed in triplicate.
HIV-1 strain IIIb (1,8×10^5 TCID50/ml) was placed on epithelial cells (10^6/petri dish). […] After a 1-h incubation, the cells were washed three times with trysin (0,25%) and incubated for 10 min at 37° C. with trypsin solution to inactivate all virus particles adsorbed at the cell surface. The cells were harvested and subcultured for different incubation times (see. Table 1). Subsequently, the cell-free supermatant of each subculture was titrated on MT4 cells as described above.
For the data in Table 1 HIV-1 strain IIIb (1,8×10^4 TCID50/ml) was placed on epithelial cells (10^6/petri dish) with or without inhibitors. After a 1-h incubation the cells were treated with trypsin to inactivate all extracellular HIV particles. Cells were incubated with fresh medium and the supernatants were harvested at different time points. Infectious virus in the supernatant was titrated on MT4 cells (see Materials and Methods). All experiments were performed in triplicate. The differences between the infectious titers with and without inhibitors are highly significant for all incubation times (P<0.001 by the Mann Whitney U test).

The test system of experiment [2] is HIV-1 strain IIIb. The experiment is described as follows: Viral transepithelial transport in two-compartment culture system. It counts as cell-based. The conditions noted are these: 45 min. incubation; for amount of infectious HIV 1 in the basal compartment: without inhibitor 10^3. As for the experimental part:
For transepithelial transport experiments, primary epitheilal cells (10^4/ml) were grown on a polycarbonate filter membrane (9 mm diameter 3,0 μm pore diameter, Becon Dickinson) separating a basal and an apical chamber and cultivated for 10 days until confluence was observed. The development of an epithelial monolayer was examined by confocal laser microscopy. To further test for confluence a fluorescein solution (0,2 mg/ml) or fluorescent paricles (10^6 particles/ml each particle 0,1 μm in diameter) were added to the apical chamber and fluorescence activity in the basal chambers was measured after 45 min of incubation at 4° C. to inhibit cell membrane diffusion. For calibration of paracellular diffusion membranes were covered with a layer of 15% polyacrylamide gel leaving free circular areas by placing small cylinders of defined size on the filter before gel casting. Fluorescence activity which diffused from the apical to the basal chamber through different areas of uncovered epithelial cells was measured after the 45 min. incubation.
as §1
The HIV-1 specificity of the CPE in MT4 cells was confirmed by determination of p24 core protein content by a p24 antigen capture assay (Coulter). […] Experiments were done in triplicate.

Experiment [3] concerns transport of gp120 coated particles through the epithelial monolayer. Nature of the experiment: Transepithelial transport of gp120-coated fluorescent particles. To be noted: for transport of gp120-coated particles, % of the level for unstimulated cells: FSK- and IBMX-treated cells. The experiment is classed as cell-based, human. The source says:
For transepithelial transport studies gp120 was covalently coupled to monodispersed carboxylated fluorescent microparticles (0,1 μm in diameter; Polysciences, Warlington, Pa.) as described previously (Molday R. S., 1975, J. Cell Biol., 64, 75-88). The active groups of the control beads and the remaining gp120 coated beads were blocked with glycine. The attachment of gp120 to the fluoresent particles was quantified by measuring the binding of a monoclonal anti-HIV gp120 antibody to the beads.
The gp120-coated particles were diluted (10^5 partices/ml) in Hanks buffer and placed in the apical chamber after the epithelial cells were washed three times with Hanks buffer. The apical chamber was transferred into a new basal chamber, and Hanks buffer was changed after 10, 40, 90 min of incubation. The buffer harvested at the indicated time points was centrifuged (14.000×g for 15 min), the pellet was resuspended and the fluorescence activity was measured. A combination of forskolin (FSK 10 μM ) and 3-isobutyl-1-methyl-xantin (IBMX, 10 μm) was used to study the effect of cyclic AMP (cAMP) and epithelial transport. Preincubation of the epithelial cells for 2 h increased the intracellular cAMP level eightfold (cAMP immunoassay: Biomol, Plymouth Meeting, Pa.). Glycine-coated microparticles were used as the control for nonspecific paracellular flow under the experimental conditions: the fluorescence of the controls was subtracted from the fluorescence-activities found in the respective experiments with gp120-coated particles.
After incubation for 10, 40 and 90 min at 37° C., the solution in the basal chamber was changed and the fluorescence activity was measured as described above.
To increase the amount of high-mannose-type glycans on the epithelial cells, cells were preincubated for 2 h with 10 mM desoxymannojirimycin (Fuhrmann U. E., 1984, Nature, 307, 755-788). To control the increase of high-mannose-type glycan expression, the filter membrane was cut and placed in 300 μl of lysis buffer (0,2 M Tris-HCl, 2% SDS, 0,1% dithiothreitol). […]

On to `CO[C@H]1O[C@H](CO)[C@@H](O)[C@H](O)[C@@H]1O` [aMMP, α-methyl-mannopyramoside], for which the “HIV concn in the supernatant after treatm.” value (“HIV concn in the supernatant” for short) with HIV-1 strain IIIb [1] (aMMP (100 mM), 60 min. after trypsin treatm.) was 10^1 TCID50/ml; with HIV-1 strain IIIb [1] (aMMP (100 mM), 120 min. after trypsin treatm.) it was 10^1 TCID50/ml; in the experiment on HIV-1 strain IIIb [1] (aMMP (100 mM), 160 min after trypsin treatm.), 10^1 TCID50/ml; in the experiment with HIV-1 strain IIIb [1] (aMMP (100 mM), 24 h after trypsin treatm.), 10^1 TCID50/ml. Moreover, the “reduction of the amount of infectious HIV 1 in the basal compartment” value in the experiment on HIV-1 strain IIIb [2] (aMMP (100 mM)) is recorded as 1 order of magnitude. In addition, in the experiment with HIV-1 strain IIIb [2] (preincubation with aMMP (100 mM)), the “amount of infectious HIV 1 in the basal compartment” value was 10^2 TCID50/ml. In addition, the “transport of gp120-coated particles, % of the level for unstimulated cells” value in experiment [3] (aMMP 100 mM final concentration) is given as “about 50%”.

Take `OC[C@H]1NC[C@@H](O)[C@@H](O)[C@@H]1O` [desoxymannojirimycin, reference compound]: the “effect on the cAMP-stimulated increase of particles in the basal compartment (in words)” value in experiment [3] (2 h preincubation with 10 mM desoxymannojirimycin, FSK/IBMX stimulated cells) was “further augmentation”.

Mucin: the “HIV concn in the supernatant” value with HIV-1 strain IIIb [1] (Mucin (1 mM), 60 min. after trypsin treatm.) is 10^1 TCID50/ml; in the experiment with HIV-1 strain IIIb [1] (Mucin (1 mM), 120 min. after trypsin treatm.), 10^1 TCID50/ml; in the experiment with HIV-1 strain IIIb [1] (Mucin (1 mM), 160 min after trypsin treatm.) it was 10^1 TCID50/ml; in the experiment with HIV-1 strain IIIb [1] (Mucin (1 mM), 24 h after trypsin treatm.), 10^1 TCID50/ml. Besides, in the experiment with HIV-1 strain IIIb [1] (Table 1), the “inhibition of viral uptake and release of cell-free HIV-1 (in words)” value is recorded as “significantly inhibit”. The “amount of infectious HIV 1 in the basal compartment” value in the experiment with HIV-1 strain IIIb [2] (mucin (30 mg/ml per method)) is 10^2 TCID50/ml.

As to mannan, the “HIV concn in the supernatant” value in the experiment on HIV-1 strain IIIb [1] (Mannan (5 mM), 60 min. after trypsin treatm.) was 10^0 TCID50/ml; with HIV-1 strain IIIb [1] (Mannan (5 mM), 120 min. after trypsin treatm.), 10^1 TCID50/ml; in the experiment with HIV-1 strain IIIb [1] (Mannan (5 mM), 160 min after trypsin treatm.) it was 10^1 TCID50/ml; with HIV-1 strain IIIb [1] (Mannan (5 mM), 24 h after trypsin treatm.), 10^1 TCID50/ml. In addition, in the experiment with HIV-1 strain IIIb [2] (mannan (5 mM)), the “reduction of the amount of infectious HIV 1 in the basal compartment” value is on record as 1 order of magnitude. Besides, the “amount of infectious HIV 1 in the basal compartment” value in the experiment on HIV-1 strain IIIb [2] (preincubation with mannan (5 mM)) is 10^2 TCID50/ml. In experiment [3] (mannan 5 mg/ml final concentration), the “transport of gp120-coated particles, % of the level for unstimulated cells” value was “about 50%”.

Values taken from patent publication US20040063624A1, “Method of inhibiting the transition of free HIV virus through the cllular mucosal barrier” (priority 1999, published 2004).
